Reference: US7432299B2, “Method of treatment for sexual dysfunction” (Pfizer Inc., priority 2002, dated 2008)

Tests used:
[1] = system: PCA-induced ejaculation in anaesthetised rats; assay: p-chloroamphetamine (PCA)-induced ejaculation in anaesthetised rat model of premature ejaculation; type: in vivo; conditions: for animals that failed to ejaculate within 30 minutes: assigned ejaculatory latency of 1800 s
Method: In order to study penile erection and ejaculation the method used was based on the methodology taught in Yonezawa et al (2000) Life Sciences 67, 3031-3039. For ease of reference, this methodology is described below:
Male Sprague Dawley rats, weighing 350-450 g, are used. Prior to the experiments the animals are housed in groups (2 rats per cage) under controlled 12 h light-dark cycle (lights on at 07:00), constant temperature (23±1° C.) and humidity (55±5%). They have free access to standard food pellets and water.
Rats are anesthestised with sodium pentobarbitone (50 mg/kg, i.p.) and are placed in the supine position. The penis is extruded from its sheath and gently held by a wooden applicator positioned at the base of the penis. The test compounds are administered orally and p-chloroamphetamine (PCA) (5-10 mg/kg) is administered i.p. immediately before the sheath retraction and the penile responses, including penile erection, redding and expansion of the penile body, glans erection, engorgement and slight flaring of the glans and cup, glans erection with intense flaring of the glans, are recorded in the presence of test compound or vehicle. Latencies from PCA administration to the initial penile response and ejaculation is also measured in seconds in the presence of test compound or vehicle.
Compound (XI) was dosed orally and was tested at 1, 3, 10 or 30 mg/kg po, 60 min prior to PCA administration).

[2] = system: rapid ejaculating rats; assay: Copulatory behaviour in rapid ejaculating conscious rats (model of premature ejaculation); type: in vivo, rat
Method: For all the sexual behavour tests, the rapid ejaculating male rats were used as an animal model of premature ejaculation (classified as ejaculatory latency <300 s during baseline assessment). Rapid ejaculating rats were placed in an observation arena (50-60 cm diameter), starting 5 hours into the dark cycle and observed under red ilumination. Three to four minutes after placing the male in the arena, a receptive female (ovariectomised, oestradiol benzoate/progesterone injection 48 hour before behavioural study) was introduced into the arena and the following parameters noted: • i) ejaculatory latency (EJL; time taken from addition of receptive female into the arena to ejaculation); • ii) copulatory efficiency (CE; ejaculatory latency/the number of intromissions to ejaculation, i.e. the number of seconds between intromissions); • iii) intromission frequency (IF; the number of intromissions to ejaculation); • iv) mount frequency (MF; the number of mounts to ejaculation); • v) post ejaculatory interval (PEI; the time taken from ejaculation to the commencement of copulatory behaviour). The Compound Used in the Following Examples was as Follows:
Rodent copulatory behaviour is characterised by a series of mounts, with and without vaginal insertion (50-80% of mounts result in intromission [vaginal penetration]) and ejaculation occurs after 6 to 12 intromissions. Each intromission lasts a matter of seconds—it is not possible to quantify intromission length i.e. intravaginal latency. The effect of Compound (XI) was assessed on a number of copulatory parameters (see above). We have focused ejaculatory latency as a clinical biomarker of time taken to achieve ejaculation. The study was performed in rapid ejaculating rats as a model of premature ejaculation (rats characterised by ejaculatory latency <300 s at baseline).
Compound (XI), an alpha-2-delta ligand, increased ejaculatory latency by 58% in rapidly-ejaculating conscious rats (P<0.01); i.e. Compound (XI) (10 mg/kg, 60 min post oral dosing)-treated animals took 219 s to ejaculate compared to 139 s in vehicle treated animals (see Table 2 below).

SMILES: NC[C@]1(CC(=O)O)C[C@H]2CCC[C@H]21 [Compound (XI), (1R,5R,6S)-[6-(Aminomethyl)bicyclo[3.2.0]hept-6-yl]acetic acid]
- animals that failed to ejaculate within 30 minutes ([1]; 3 mg/kg po): 3 out of 7
- time taken to achieve erection ([1]; 10 mg/kg po): small delay
- animals that failed to ejaculate within 30 minutes ([1]; 10 mg/kg po): 3 out of 7
- time taken to achieve erection ([1]; 30 mg/kg po): small delay
- p-chloroamphetamine (PCA)-induced ejaculation ([1]; anaesthetised rats, 1, 3, 10 or 30 mg/kg po, 60 min prior to PCA administration): significantly delayed
- quality of erection ([1]; anaesthetised rats, 1-30 mg/kg po): not influenced
- increase of ejaculatory latency ([1]; anaesthetised rats, dose-dependent, 1-30 mg/kg po, 60 min prior to PCA): up to 250%
- ejaculatory latency ([1]; anaesthetised rats, doses above 3 mg/kg po, vehicle circa 300 s): circa 1000 s
- ejaculatory latency ([2]; 10 mg/kg po, mean ± sem (n = 6), P < 0.01): 219 ± 26 s
- other effects on copulatory behaviour ([2]; rapidly-ejaculating conscious rats, 10 mg/kg po): no other significant effects
- increase of ejaculatory latency ([2]; rapidly-ejaculating conscious rats, 10 mg/kg, 60 min post oral dosing, P<0.01): 58%
- time to ejaculate (ejaculatory latency) ([2]; rapidly-ejaculating conscious rats, 10 mg/kg, 60 min post oral dosing, vehicle 139 s): 219 s
